Source: ChEMBL document CHEMBL4483862, “Open-source discovery of chemical leads for next-generation chemoprotective antimalarials” (2018)
pIC50: −log10 of the molar value.

Test system: Plasmodium berghei
Test: Luciferase/luciferin-expressing antifolate-resistant parasites were used to infect a culture of HepG2 cells that were pre-incubated with compounds. Infected hepatocytes emit light due to the luciferase reaction. Assay results are presented as the percent inhibition of light emission compared to control. […]
Type: functional
Conditions: sporozoite; for IC90: read-out: LUCIFERASE INFECTION ASSAY - IC90
[1] = read-out: LUCIFERASE INFECTION ASSAY - IC50

Row | SMILES | IC90 [µM] | pIC50 [1] | other results
1 | CC1CCCN(c2ccc(C#N)cn2)C1 (stereo not drawn) | > 10 | – | pIC50 (HEPG2TOX_HILL_SLOPE 1.55, HEPG2TOX_R_SQUARED 0.88, PBLUC_HILL_SLOPE 1.47, PBLUC_R_SQUARED 0.333, read-out: LUCIFERASE INFECTION ASSAY - IC50): < 5.00
2 | COc1ccc(-c2cnc3cnc(-c4ccc(N5CCN(C)CC5)nc4)cn23)cc1 | > 8.24 | – | pIC50 (PBLUC_HILL_SLOPE 3.44, PBLUC_R_SQUARED 0.167, read-out: LUCIFERASE INFECTION ASSAY - IC50): 5.20
3 | COc1ccc(C(=O)C(/C=N/N)=N/Nc2cc(C)cc(C)c2)cc1 | 5.98 | – | pIC50 (HEPG2TOX_HILL_SLOPE 2.41, HEPG2TOX_R_SQUARED 0.984, PBLUC_HILL_SLOPE 5.05, PBLUC_R_SQUARED 0.51, read-out: LUCIFERASE INFECTION ASSAY - IC50): 5.41
4 | C/C(=N\NC(=S)Nc1ccccc1)c1ccn[nH]1 | > 12.7 | – | pIC50 (FFLUC_HILL_SLOPE 48.7, FFLUC_R_SQUARED 0.514, PBLUC_HILL_SLOPE 3.68, PBLUC_R_SQUARED 0.194, read-out: LUCIFERASE INFECTION ASSAY - IC50): 5.06
5 | c1ccc(Oc2cccc(-c3ccc4ncc(-c5ccoc5)n4n3)c2)cc1 | > 10 | < 5.00 | –
6 | Cn1c(-c2ccco2)nc2cnc(Nc3cccc(F)c3)cc21 | > 10 | – | pIC50 (HEPG2TOX_HILL_SLOPE 1.1, HEPG2TOX_R_SQUARED 0.907, read-out: LUCIFERASE INFECTION ASSAY - IC50): < 5.00
7 | CCOc1ccc(NC(=O)c2ccc(F)cc2)cc1S(=O)(=O)N(C)C | > 10 | – | pIC50 (PBLUC_HILL_SLOPE 2.43, PBLUC_R_SQUARED 0.406, read-out: LUCIFERASE INFECTION ASSAY - IC50): 5.07
8 | Cn1c(Cc2ccccc2)nc2cnc(Nc3cccc(C(F)(F)F)c3)cc21 | > 10 | < 5.00 | –
9 | COc1ccc(CC(N)c2csc(NC(=O)Nc3cccc(C(F)(F)F)c3)n2)cc1 (stereo not drawn) | > 7.56 | – | pIC50 (PBLUC_HILL_SLOPE 3.34, PBLUC_R_SQUARED 0.752, read-out: LUCIFERASE INFECTION ASSAY - IC50): 5.26
10 | Cc1nn(C)c(NC(=O)c2ccc(Cl)cc2)c1Br | > 10 | – | pIC50 (PBLUC_HILL_SLOPE 41, PBLUC_R_SQUARED 0.305, read-out: LUCIFERASE INFECTION ASSAY - IC50): < 5.00
11 | C=CC/N=c1\scc(-c2ccc(Br)s2)n1/N=C/c1ccccn1 | 4.27 | 5.44 | –
12 | Cc1ccccc1-n1c(SCc2nc3ccccc3c(=O)n2CC#N)nnc1-c1ccc(C(C)(C)C)cc1 | > 10 | – | pIC50 (FFLUC_HILL_SLOPE 0.956, FFLUC_R_SQUARED 0.529, read-out: LUCIFERASE INFECTION ASSAY - IC50): < 5.00
13 | O=C(Nc1ccc(F)cc1)Nc1cnn(-c2ccc([N+](=O)[O-])cc2)c1C(F)(F)F | > 8.06 | 5.53 | –
14 | CCc1nc(CN2CC=C(c3c[nH]c4ccccc34)CC2)cs1 | 7.32 | – | pIC50 (HEPG2TOX_HILL_SLOPE 12.8, HEPG2TOX_R_SQUARED 0.446, PBLUC_HILL_SLOPE 9.90, 7.64, PBLUC_R_SQUARED 0.0237, 0.266, read-out: LUCIFERASE INFECTION ASSAY - IC50): 5.24
15 | Cc1ccc(NC(=O)Nc2ccc(Cl)c(Cl)c2)nc1 | 9.58 | – | pIC50 (PBLUC_HILL_SLOPE 3.93, PBLUC_R_SQUARED 0.477, read-out: LUCIFERASE INFECTION ASSAY - IC50): 5.26
16 | O=[N+]([O-])c1ccc(Oc2c(Cl)cc(Cl)cc2Cl)cc1 | > 10.4 | – | pIC50 (PBLUC_HILL_SLOPE 1.34, PBLUC_R_SQUARED 0.555, read-out: LUCIFERASE INFECTION ASSAY - IC50): 5.43
17 | O=C1C=C(SCC(=O)c2ccc([N+](=O)[O-])cc2)SC(c2ccccc2Cl)C1 (stereo not drawn) | > 7.86 | < 5.10 | –
18 | O=C(Nc1cccc(F)c1)C1(c2ccnc(Nc3ccc(C(F)(F)F)cc3)c2)CC1 | > 10 | < 5.00 | –
19 | Cc1cc(/C=N/Nc2ccc(Cl)nn2)c(C)n1-c1ccccc1Cl | 9.4 | – | pIC50 (FFLUC_HILL_SLOPE 16.1, FFLUC_R_SQUARED 0.664, PBLUC_HILL_SLOPE 12.5, PBLUC_R_SQUARED 0.559, read-out: LUCIFERASE INFECTION ASSAY - IC50): 5.10
20 | CNc1nc2cnc(Nc3ccc(F)c(Cl)c3)cc2n1-c1cccc(C(F)(F)F)c1 | > 10 | < 5.00 | –
21 | O=C(Cc1nc(=O)c2c3c(sc2[nH]1)CCCC3)c1c[nH]c2ccccc12 | > 10 | < 5.00 | –
22 | CNc1nc2cnc(Nc3ccc(C(C)C)cc3)cc2n1Cc1ccc(OC)c(OC)c1 | > 10 | – | pIC50 (PBLUC_HILL_SLOPE 2.59, PBLUC_R_SQUARED 0.223, read-out: LUCIFERASE INFECTION ASSAY - IC50): 5.17

Row | SMILES | IC90 [µM] | pIC50 [1] | other results
23 | Cc1cc(C(=O)OCc2c(Cl)cccc2Cl)c(C)o1 | > 10 | < 5.00 | –
24 | Cc1cc(C)n(-c2nc(NCc3ccco3)cc(-c3ccccc3)n2)n1 | > 9.55 | – | pIC50 (PBLUC_HILL_SLOPE 3.01, PBLUC_R_SQUARED 0.273, read-out: LUCIFERASE INFECTION ASSAY - IC50): 5.29
25 | Fc1cccc(-c2nc3ccnc(NCCc4ccccn4)c3[nH]2)c1 | 4.02 | – | pIC50 (HEPG2TOX_HILL_SLOPE 2.04, HEPG2TOX_R_SQUARED 0.803, PBLUC_HILL_SLOPE 12.8, PBLUC_R_SQUARED 0.152, read-out: LUCIFERASE INFECTION ASSAY - IC50): 5.47
26 | COc1cc(NC(=S)Nc2ccc(Cl)cc2)cc(C(F)(F)F)c1 | > 9.15 | < 5.04 | –
27 | Cc1ccc(C2(c3ccccc3)NC(=O)N(CC(=O)c3cccs3)C2=O)cc1C (stereo not drawn) | 6.65 | – | pIC50 (FFLUC_HILL_SLOPE 12.5, FFLUC_R_SQUARED 0.056, HEPG2TOX_HILL_SLOPE 0.321, HEPG2TOX_R_SQUARED 0.0152, PBLUC_HILL_SLOPE 3.37, 16.8, PBLUC_R_SQUARED 0.316, 0.669, read-out: LUCIFERASE INFECTION ASSAY - IC50): 5.39
28 | O=C(Nn1cnc2ccccc21)c1ccccc1Nc1ccc(SC(F)F)cc1 | > 10 | – | pIC50 (PBLUC_HILL_SLOPE 11.6, PBLUC_R_SQUARED 0.0782, read-out: LUCIFERASE INFECTION ASSAY - IC50): 5.06
29 | CC(C)(C)C(=O)N1CCC(C(=O)N(Cc2ccccc2)c2nc3c(s2)CCCC3)CC1 | > 10 | < 5.00 | –
30 | CC(C)(C)c1csc(Cc2ccc(-c3csnn3)cc2)n1 | 8.68 | – | pIC50 (HEPG2TOX_HILL_SLOPE 6.43, HEPG2TOX_R_SQUARED 0.485, PBLUC_HILL_SLOPE 2.92, PBLUC_R_SQUARED 0.738, read-out: LUCIFERASE INFECTION ASSAY - IC50): 5.39
31 | CCCCn1c(SCC(=O)Nc2cc(C(F)(F)F)ccc2N2CCOCC2)nc2ccccc21 | > 10 | < 5.00 | –
32 | NC(=O)c1ccc(-c2ccnc3n[nH]c(-c4cccc(F)c4)c23)cc1 | 3.73 | – | pIC50 (HEPG2TOX_HILL_SLOPE 2.67, HEPG2TOX_R_SQUARED 0.872, PBLUC_HILL_SLOPE 9.91, PBLUC_R_SQUARED 0.595, read-out: LUCIFERASE INFECTION ASSAY - IC50): 5.52
33 | CC(C)(C)c1cc(C(=O)OCC(=O)N2CCCCC2)cc(C(C)(C)C)c1 | > 10 | – | pIC50 (PBLUC_HILL_SLOPE 1.88, PBLUC_R_SQUARED 0.16, read-out: LUCIFERASE INFECTION ASSAY - IC50): 5.07
34 | COCCCn1c(SCc2ccc(C)cc2)nnc1-c1ccc(C(C)(C)C)cc1 | > 8.06 | – | pIC50 (PBLUC_HILL_SLOPE 1.28, PBLUC_R_SQUARED 0.571, read-out: LUCIFERASE INFECTION ASSAY - IC50): < 5.09
35 | CC(=O)N1CCC(C(=O)Nc2cc(C(F)(F)F)ccc2NC2CCCCC2)CC1 | > 10 | < 5.00 | –
36 | N#Cc1c(N)nc(Sc2ccc(Cl)cc2)c(C#N)c1-c1ccccc1Cl | > 8.31 | – | pIC50 (HEPG2TOX_HILL_SLOPE 9.05, HEPG2TOX_R_SQUARED 0.0303, PBLUC_HILL_SLOPE 3.41, PBLUC_R_SQUARED 0.0674, read-out: LUCIFERASE INFECTION ASSAY - IC50): 5.11
37 | COc1ccc(S(=O)(=O)N2CCc3ccccc32)cc1C(=O)NOCc1ccccc1 | > 10 | < 5.00 | –
38 | CCOC(=O)NC1=C/C(=N\S(=O)(=O)c2ccc(C)cc2)c2ccccc2C1=O | > 10 | – | pIC50 (HEPG2TOX_HILL_SLOPE 8.17, HEPG2TOX_R_SQUARED 0.938, PBLUC_HILL_SLOPE 4.13, PBLUC_R_SQUARED 0.0669, read-out: LUCIFERASE INFECTION ASSAY - IC50): < 5.00
39 | O=C(Nc1ccc(Oc2ccc([N+](=O)[O-])c3cnccc23)cc1)c1ccccc1 | > 10 | – | pIC50 (FFLUC_HILL_SLOPE 3.45, FFLUC_R_SQUARED 0.514, PBLUC_HILL_SLOPE 3.38, PBLUC_R_SQUARED 0.0773, read-out: LUCIFERASE INFECTION ASSAY - IC50): 5.13
40 | Cc1cc(C(=O)CN2CCN(C)CC2)c(C)n1C(c1ccccc1)c1ccccc1 | > 10 | – | pIC50 (PBLUC_HILL_SLOPE 2.18, PBLUC_R_SQUARED 0.339, read-out: LUCIFERASE INFECTION ASSAY - IC50): 5.17
41 | CN(C)c1ccc(C(=O)Nc2cnc3ccccc3c2)cc1 | > 10 | – | pIC50 (FFLUC_HILL_SLOPE 4.08, FFLUC_R_SQUARED 0.429, HEPG2TOX_HILL_SLOPE 2.09, HEPG2TOX_R_SQUARED 0.742, PBLUC_HILL_SLOPE 0.628, PBLUC_R_SQUARED 0.448, read-out: LUCIFERASE INFECTION ASSAY - IC50): 6.26
42 | C=CCNC(=S)N1CCc2c([nH]c3ccccc23)C1C(F)(F)F (stereo not drawn) | > 9.72 | < 5.01 | –
43 | O=C(Oc1ccc(Cl)cc1Sc1cc(Cl)ccc1OC(=O)c1cccs1)c1cccs1 | > 6.5 | – | pIC50 (FFLUC_HILL_SLOPE 35.2, FFLUC_R_SQUARED 0.259, read-out: LUCIFERASE INFECTION ASSAY - IC50): < 5.19
44 | COCCN(Cc1nc(=O)c2ccccc2[nH]1)C(=O)c1cc(C(C)(C)C)cc(C(C)(C)C)c1O | > 10 | < 5.00 | –
